*1 amine or outer side, *2 acyl side, *3 side chain or, on linkers, in order; H or OH if unused. Where a SMILES comes first, the peptide text is derived from it. Side-chain parts run from the residue outwards. [ ]: non-standard residue; d: D form. The star is where a group is joined. C20 diacid = O=C(O)CCCCCCCCCCCCCCCCCCC(=O)*; γGlu = O=C(O)[C@H](CCC(=O)[*:2])N[*:1]; X35 = N#Cc1cc(F)cc(C2(C(=O)*)CCCC2)c1; X69 = CC(C)(C(=O)*)c1c(F)cccc1F; AEEA = NCCOCCOCC(=O)O; Aib = CC(C)(N)C(=O)O; βAla = NCCC(=O)O
What was measured:
Assay type in all cases: cell-based
GIP receptor [1] = molecular target: T1, GIP receptor (Homo sapiens, UniProt P48546); test: PathHunter β-arrestin assay, GIP receptor; parameters: host or cells: PathHunter CHO-K1 GIPR β-Arrestin Cell Line; details: β-arrestin-2 recruitment, PathHunter CHO-K1 GIPR β-Arrestin Cell Line, 90 min at 37° C.; normalized to GIP; read-out: GIPR β Arrestin EC50
T1 sequence (P48546 22-466): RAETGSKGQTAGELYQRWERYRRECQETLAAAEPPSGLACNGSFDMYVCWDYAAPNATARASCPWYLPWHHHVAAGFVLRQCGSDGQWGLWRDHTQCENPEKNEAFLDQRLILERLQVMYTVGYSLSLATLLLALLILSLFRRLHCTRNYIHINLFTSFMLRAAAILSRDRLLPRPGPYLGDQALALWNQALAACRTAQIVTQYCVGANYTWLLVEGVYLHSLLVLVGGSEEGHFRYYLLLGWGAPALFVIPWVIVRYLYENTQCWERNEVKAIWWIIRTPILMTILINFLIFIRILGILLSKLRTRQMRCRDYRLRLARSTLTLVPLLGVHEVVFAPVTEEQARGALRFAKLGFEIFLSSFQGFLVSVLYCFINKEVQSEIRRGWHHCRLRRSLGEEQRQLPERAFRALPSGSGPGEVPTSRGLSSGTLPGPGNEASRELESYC

GLP-1 receptor [2] = molecular target: T2, GLP-1 receptor (Homo sapiens, UniProt P43220); test: HitHunter cAMP assay, GLP-1 receptor; details: for EC50: CHO cells stably expressing human GLP-1 receptor, cAMP accumulation, 30 min, read-out: EC50 GLP-1R; for Emax: CHO cells, cAMP, normalized to maximum signal from GLP-1 (high) and DMSO (low), read-out: Emax GLP-1R
T2 sequence (P43220 24-463): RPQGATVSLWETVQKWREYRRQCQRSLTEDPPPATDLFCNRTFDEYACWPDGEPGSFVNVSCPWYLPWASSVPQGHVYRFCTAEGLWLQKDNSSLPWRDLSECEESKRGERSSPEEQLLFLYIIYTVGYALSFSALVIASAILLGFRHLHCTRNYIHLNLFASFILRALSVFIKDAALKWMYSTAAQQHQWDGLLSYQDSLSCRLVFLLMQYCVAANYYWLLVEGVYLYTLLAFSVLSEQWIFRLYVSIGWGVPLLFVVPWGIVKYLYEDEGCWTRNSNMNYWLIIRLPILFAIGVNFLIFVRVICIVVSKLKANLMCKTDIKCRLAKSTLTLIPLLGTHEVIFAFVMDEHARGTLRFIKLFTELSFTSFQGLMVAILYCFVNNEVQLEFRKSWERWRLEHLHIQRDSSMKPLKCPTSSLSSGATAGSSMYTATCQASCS

GLP-1 receptor [3] = molecular target: T2, GLP-1 receptor; test: PathHunter β-arrestin assay, GLP-1 receptor; parameters: host or cells: PathHunter CHO-K1 GLP1R β-Arrestin Cell Line; details: β-arrestin-2 recruitment, PathHunter CHO-K1 GLP1R β-Arrestin Cell Line, 90 min at 37° C.; normalized to GLP-1; read-out: GLP-1R β Arrestin EC50
GIP receptor [4] = molecular target: T1, GIP receptor; test: HitHunter cAMP assay, GIP receptor; details: for EC50: CHO cells stably expressing GIP receptor, cAMP accumulation, 30 min, read-out: EC50 GIP-1R; for Emax: CHO cells, cAMP, normalized to maximum signal from GIP (high) and DMSO (low), read-out: Emax GIP-1R

Compound | EC50 (GIP receptor [1]) [nM] | EC50 (GLP-1 receptor [2]) [nM] | Emax (GLP-1 receptor [2]) [%] | EC50 (GLP-1 receptor [3]) [nM] | EC50 (GIP receptor [4]) [nM] | Emax (GIP receptor [4]) [%]
CC[C@H](C)[C@H](NC(=O)[C@H](CC(C)C)NC(=O)[C@H](Cc1c[nH]c2ccccc12)NC(=O)[C@H](CCC(N)=O)NC(=O)[C@@H](NC(=O)[C@H](Cc1ccccc1)NC(=O)[C@H](C)NC(=O)[C@H](CCCCNC(=O)COCCOCCNC(=O)COCCOCCNC(=O)CC[C@H](NC(=O)CCCCCCCCCCCCCCCCCCC(=O)O)C(=O)O)NC(=O)[C@H](CCC(N)=O)NC(=O)[C@H](C)NC(=O)[C@@H](NC(=O)[C@H](CCCCN)NC(=O)[C@H](CC(=O)O)NC(=O)[C@H](CC(C)C)NC(=O)C(C)(C)NC(=O)[C@@H](NC(=O)[C@H](CO)NC(=O)[C@H](Cc1ccc(O)cc1)NC(=O)[C@H](CC(=O)O)NC(=O)[C@H](CO)NC(=O)[C@@H](NC(=O)[C@H](Cc1ccccc1)NC(=O)[C@@H](NC(=O)CNC(=O)[C@H](CCC(=O)O)NC(=O)CCNC(=O)C(C)(C)c1c(F)cccc1F)[C@@H](C)O)[C@@H](C)O)[C@@H](C)CC)[C@@H](C)CC)C(C)C)C(=O)N[C@@H](C)C(=O)NCC(=O)NCC(=O)N1CCC[C@H]1C(=O)N[C@@H](CO)C(=O)N[C@@H](CO)C(=O)NCC(=O)N[C@@H](C)C(=O)N1CCC[C@H]1C(=O)N1CCC[C@H]1C(=O)N1CCC[C@H]1C(=O)N[C@@H](CO)C(N)=O [Compound 163] ({X69-βAla}-EGTFTSDYSI[Aib]LDKIAQK([AEEA-AEEA-γGlu-C20 diacid])AFVQWLIAGGPSSGAPPPS-NH2) | < 1000 | 0.1 to 1 | 104 | > 1000 | 10 to 100 | 105
CC[C@H](C)[C@H](NC(=O)[C@H](CC(C)C)NC(=O)[C@H](Cc1c[nH]c2ccccc12)NC(=O)[C@H](CCC(N)=O)NC(=O)[C@@H](NC(=O)[C@H](Cc1ccccc1)NC(=O)[C@H](C)NC(=O)[C@H](CCCCNC(=O)COCCOCCNC(=O)COCCOCCNC(=O)CC[C@H](NC(=O)CCCCCCCCCCCCCCCCCCC(=O)O)C(=O)O)NC(=O)[C@H](CCC(N)=O)NC(=O)[C@H](C)NC(=O)[C@@H](NC(=O)[C@H](CCCCN)NC(=O)[C@H](CC(=O)O)NC(=O)[C@H](CC(C)C)NC(=O)C(C)(C)NC(=O)[C@@H](NC(=O)[C@H](CO)NC(=O)[C@H](Cc1ccc(O)cc1)NC(=O)[C@H](CC(=O)O)NC(=O)[C@H](CO)NC(=O)[C@@H](NC(=O)[C@H](Cc1ccccc1)NC(=O)[C@@H](NC(=O)CNC(=O)[C@H](CCC(=O)O)NC(=O)CCNC(=O)C1(c2cc(F)cc(C#N)c2)CCCC1)[C@@H](C)O)[C@@H](C)O)[C@@H](C)CC)[C@@H](C)CC)C(C)C)C(=O)N[C@@H](C)C(=O)NCC(=O)NCC(=O)N1CCC[C@H]1C(=O)N[C@@H](CO)C(=O)N[C@@H](CO)C(=O)NCC(=O)N[C@@H](C)C(=O)N1CCC[C@H]1C(=O)N1CCC[C@H]1C(=O)N1CCC[C@H]1C(=O)N[C@@H](CO)C(N)=O [Compound 164] ({X35-βAla}-EGTFTSDYSI[Aib]LDKIAQK([AEEA-AEEA-γGlu-C20 diacid])AFVQWLIAGGPSSGAPPPS-NH2) | > 1000 | 1 to 10 | 112 | > 1000 | 1 to 10 | 106
